Here are results for 4 compounds from article PMC11768344 (Pharmaceutics, 2024).

≈ marks a conversion by molar mass, not a printed value. Read-outs that look alike come from different tables or passages of the source.

Series [1] can be described thus: in vitro drug release, inverted-cup method. The class given is physicochemical. To be noted: for solubility: PBS pH 7.4 with 0.25% SDS (release medium), pH 7.4, read-out: solubility in the release media. As for the experimental part:
In a preliminary study, the release of ROP-ST from its oil solution was investigated at 25 °C using the dialysis method. Briefly, 0.5 mL of ROP-ST oil solution was placed into a dialysis bag (MWCO: 14 kDa) and immersed into 150 mL of PBS solution (pH 7.4) with 0.5% sodium dodecyl sulfate (SDS). The dialysis media were stirred with a magnetic bar at 100 r/min. An aliquot (1 mL) was withdrawn at predetermined time intervals, and ROP-ST in the samples was quantified using HPLC−UV. […] Therefore, an “inverted-cup” method was utilized in this study to investigate the release profile of ROP-ST (Figure 3a). Briefly, a beaker containing 150 mL of PBS solution (pH 7.4, with 0.25% SDS) as the release medium was placed on a magnetic stirrer and stirred continuously at 100 r/min at room temperature (25 °C). A transparent glass cylinder (inner diameter: 1 cm) with two open endings was placed vertically in the beaker, with one ending immersed in the PBS solution and the other ending exposed to air. Then, 1 mL of ROP-ST oil solution was added to a glass cylinder, and the ending exposed in air was sealed with a plastic thin-film. In the meantime, the beaker was also sealed with a plastic thin-film. At predetermined time intervals, an aliquot (1 mL) of the release medium were withdrawn by a syringe, and 1 mL of fresh release medium was immediately replenished. The concentration of ROP-ST in the samples was determined by HPLC−UV, and the cumulative release of ROP-ST was calculated accordingly. The experiment was performed in triplicates.
For comparison, the release of an ROP-free base from its soybean oil solution and the release of aripiprazole lauroxil (APL) from its soybean oil solution were also investigated. […] To prepare the APL oil solution, 90.4 mg of APL was dissolved and mixed in 5 mL of soybean oil. The concentration of APL was 18.08 mg/mL (27.37 mM). […] Moreover, the marketed APL injectables are suspensions; therefore, the release of APL from its suspension was also studied. This was carried out by placing 5.89 mg of APL into 150 mL of PBS7.4 solution directly, which contained 0.25% SDS. The solution was also stirred and sampled in the same way as described above. APL was analyzed according to the previously reported method.

Series [2] in a line: saturated solubility (shake, 37 °C, 72 h, HPLC-UV). To be noted: for SPBS 7.4, the solubility in PBS 7.4 solution: PBS pH 7.4, 37 °C. Format: physicochemical. The method, then: After centrifugation at 12,000 r/min for 10 min (TGL-16C centrifuge; Anting Scientific Instrument Company, Shanghai, China), the supernatant was withdrawn, and the solution was filtered through a syringe filter (pore size: 0.45 μm). […] The experiments were performed in triplicates.
Quantification of ROP-ST was performed using an HPLC−UV system consisting of an LC-10AT VP pump, an SPD-10A VP UV–vis detector, a CTO-10A column oven, a SIL-10AF autosampler, and an SCL-10A VP controller (Shimadzu Corporation; Kyoto, Japan). Data were collected and processed using LC-solution software. Isocratic elution was performed on a Diamonsil C18 column (150 mm × 4.6 mm I.D., 5 µm), and an EasyGuard C18 guard column (10 × 4.0 mm I.D., 5 µm) was mounted upstream from the analytical column (Dikma Technologies; Beijing, China). The column temperature was kept at 35 °C, and the UV absorbance wavelength was set at 215 nm. The mobile phase, comprising 88% (v/v) acetonitrile and 12% (v/v) water with 0.1% (v/v) trifluoroacetic acid, was used after filtering through a filter membrane (pore size: 0.45 μm) and degassing within an ultrasonic water bath (KQ-500VDE Ultrasonic Cleaner; Kunshan, China) for 40 min. The flow rate was maintained at 1.0 mL/min, and the injection volume was 20 µL. The calibration curve was linear in the range of 1–200 μM, and the correlation coefficient was >0.9998. […] The lower limit of quantification (LOQ) of ROP-ST was 1 μM (equal to 0.57 μg/mL). The validation of the HPLC method can be found in Supplemental Materials.
Briefly, the column temperature was kept at 35 °C, and the UV absorbance wavelength was set at 240 nm. The mobile phase comprised 50% (v/v) acetonitrile and 50% (v/v) phosphate buffer. The phosphate buffer was prepared by mixing 1.3 mL of sodium dihydrogen phosphate (1 mol/L) with 32.5 mL of disodium hydrogen phosphate (0.5 mol/L) and diluting to 1 L by water, and then the pH value was adjusted to 8.0. The flow rate was maintained at 1.0 mL/min, and the injection volume was 20 µL. The validation of the quantification method can be found in the Supplementary Materials.

Series [3] is described as follows: n-octanol/water partition coefficient (experimental Log P). Format: physicochemical. To be noted: 37 °C, read-out: Log Pexp., experimental Log P. The method, then: Approximately 1 mg of ROP-ST and ROP-free base were dissolved in a bi-phase mixture of water-saturated n-octanol solution and n-octanol-saturated water (5 mL:5 mL), respectively. After equilibration in a water bath shaker (37 °C) for 24 h, the two phases were sampled separately and diluted with acetonitrile. […] The Log P value of each compound was calculated accordingly. The experiments were performed in triplicates.

A short description of series [4]: liver esterase stability study of ROP-ST. The class given is in vitro ADME, porcine. To be noted: 0 U/mL, phosphate buffer (pH 8.0) without liver esterase, 25 °C. As for the experimental part: (§1) Porcine liver esterase solutions were prepared by dissolving 4, 8, and 16 mg of porcine liver esterase powder (15 U/mg) into 12 mL of phosphate buffer (pH 8.0) to obtain porcine liver esterase solutions with the concentrations of 5, 10 and 20 U/mL, respectively. A half milliliter of blank buffer solution (pH 8 without enzyme) or porcine liver esterase solutions with the concentration of 5, 10, or 20 U/mL, respectively, was added to an EP tube, followed by adding 50 μL of methanolic solution of ROP-ST (concentration: 1100 μM) to each tube. The tubes were sealed and placed in a water bath shaker (25 °C) according to product instructions and a previous report. Three tubes were taken at each predetermined time point (0, 30, 45, 60, 75, 90, 105, and 120 min, respectively), rapidly frozen in liquid nitrogen to terminate the enzymatic reaction, and then stored at −80 °C. The subsequent treatments of the samples complied with the procedures described in “Section 2.5.1.”. The experiment was conducted in triplicates.
(§2) The enzymatic stability of ROP-ST was examined by placing the methanolic solution of the prodrug into rat plasma solution and porcine liver esterase solution. […] The hydrolysis rate constants (kobs) of the prodrug were calculated by plotting the natural logarithm of the remaining percentage against time. The corresponding half-life (t1/2) was then calculated (t1/2 = ln2/kobs). Data at 25 °C were fitted approximately to a first-order kinetic equation for the prodrug loss (Figure 4). It should be noted that the actual hydrolytic kinetics of such lipophilic prodrugs by enzymes could be complicated in vitro and in vivo, which may not fully comply with the first-order kinetics. […] The rate of enzymatic cleavage increases as the concentration of rat plasma or the concentration of porcine liver esterase increases. In fact, the injection site of ROP-ST is muscle, which contains less esterase than the plasma. Therefore, it is logical to hypothesize that the bioconversion rate of ROP-ST in the muscle should be slower, which enables sustained release and long-acting efficacy.

The test system of another series is porcine liver esterase. The experiment in a line: liver esterase stability study of ROP-ST. To be noted: for half-life at 100 µM: pig, porcine liver esterase solution. Format: in vitro ADME. The method, then:
as §1, §2

The nature of series [5]: plasma stability study of ROP-ST. The class given is in vitro ADME, rat. To be noted: 25 °C. As for the experimental part:
Healthy male Sprague–Dawley rats (SD rats, 200 ± 20 g) were provided by the Animal Experiment Center of Nantong University (protocol code of the ethical proof: S20240617-005). Blood samples were collected from the orbital cavity and centrifuged at 10,000 r/min for 10 min (TGL-16C centrifuge; Anting Scientific Instrument Company, Shanghai, China) to obtain blank plasma. The blank plasma was mixed with saline to obtain plasma solutions of 10%, 20%, and 40% (v/v) plasma, respectively. A half milliliter of saline, or 10%, 20%, and 40% plasma solution, was added to an EP tube, respectively, followed by adding 50 μL of methanolic solution of ROP-ST (concentration: 1100 μM) to each tube. The tubes were sealed and placed in a water bath shaker (37 °C). Three tubes were taken at each predetermined time point (0, 10, 20, 30, 40, 50, 60, 70, 80, and 90 min, respectively), rapidly frozen in liquid nitrogen to terminate the enzymatic reaction, and then stored at −80 °C. The samples were lyophilized to obtain dry residues. Before analysis, the residues were dissolved in methanol and subjected to ultrasonic treatment for 30 s. The resulting solution was filtered through a filter membrane (pore size: 0.45 μm), and the remaining levels of ROP-ST in subsequent filtrates were quantified by HPLC−UV. The hydrolysis rate constants (kobs) of the prodrug were calculated by plotting the natural logarithm of the remaining percentage against time. The corresponding half-life (t1/2) was then calculated (t1/2 = ln2/kobs). The experiment was conducted in triplicates.
as §2

The nature of series [6]: in vitro drug release, dialysis method (preliminary). Format: physicochemical. Conditions: oil solution in dialysis bag MWCO 14 kDa, PBS pH 7.4 with 0.5% SDS, 25 °C, until 96 h. As for the experimental part: In a preliminary study, the release of ROP-ST from its oil solution was investigated at 25 °C using the dialysis method. Briefly, 0.5 mL of ROP-ST oil solution was placed into a dialysis bag (MWCO: 14 kDa) and immersed into 150 mL of PBS solution (pH 7.4) with 0.5% sodium dodecyl sulfate (SDS). The dialysis media were stirred with a magnetic bar at 100 r/min. An aliquot (1 mL) was withdrawn at predetermined time intervals, and ROP-ST in the samples was quantified using HPLC−UV. […] Therefore, an “inverted-cup” method was utilized in this study to investigate the release profile of ROP-ST (Figure 3a). Briefly, a beaker containing 150 mL of PBS solution (pH 7.4, with 0.25% SDS) as the release medium was placed on a magnetic stirrer and stirred continuously at 100 r/min at room temperature (25 °C). A transparent glass cylinder (inner diameter: 1 cm) with two open endings was placed vertically in the beaker, with one ending immersed in the PBS solution and the other ending exposed to air. Then, 1 mL of ROP-ST oil solution was added to a glass cylinder, and the ending exposed in air was sealed with a plastic thin-film. In the meantime, the beaker was also sealed with a plastic thin-film. […] The concentration of ROP-ST in the samples was determined by HPLC−UV, and the cumulative release of ROP-ST was calculated accordingly. […]

The conditions of series [7]: no reference given; cited from earlier work.
[8] abbreviates: 5 U/mL porcine liver esterase, pH 8.0, 25 °C.
Setting [9] is: 10 U/mL porcine liver esterase, pH 8.0, 25 °C.
[10] abbreviates: 20 U/mL porcine liver esterase, pH 8.0, 25 °C.
Setting [11] is: 0% rat plasma (saline solution without rat plasma).

Regarding `CCCCCCCCCCCC(=O)OCN1C(=O)CCc2ccc(OCCCCN3CCN(c4cccc(Cl)c4Cl)CC3)cc21` [APL, aripiprazole lauroxil, reference compound], the solubility (in general, the concentration that dissolves in the medium under given conditions) in series [1] was roughly 209 µM (≈ 138 µg/mL).

For `CCCN1CCCC[C@H]1C(=O)Nc1c(C)cccc1C` [ROP, Ropivacaine], the solubility at 72 h is roughly 1 mM in series [2] (PBS buffer pH 7.4, pH 7.4, PBS pH 7.4, 37 °C, read-out: SPBS 7.4, the solubility in PBS 7.4 solution); roughly 270 µg/mL in series [2] (PBS buffer pH 7.4, pH 7.4, PBS pH 7.4, 37 °C, read-out: solubility in PBS 7.4 solution); 37.1 ± 0.53 mM in series [2] (soybean oil, 37 °C, read-out: Soil, the solubility in soybean oil). For the same compound, the “SPBS 7.4, the solubility in PBS 7.4 solution” value in series [2] was found to be 1.04 ± 0.04 mM. For the same compound, in series [1] (from soybean oil solution 27.37 mM, PBS pH 7.4 with 0.25% SDS, 25 °C), the “released in the first 12 h” value was roughly 80%. The logP at 24 h in series [3] amounted to 1.88 ± 0.17.

Regarding `CCCCCCCCCCCCCCCCCC(=O)OCN(C(=O)C1CCCCN1CCC)c1c(C)cccc1C` (stereo not drawn) [ROP-ST, ropivacaine stearoxil], the half-life – broadly, the time in which the quantity being followed falls by half – at 100 µM in series [4] was 3.68 ± 0.623 days; in the series with porcine liver esterase (setting [8]) it was 407 ± 119 min; with porcine liver esterase (setting [9]), 260.4 ± 1.8 min; in the series on porcine liver esterase (setting [10]) it was 185 ± 21.6 min; in series [5] (setting [11]) it was 4940 ± 1570 min; in series [5] (male, Sprague-Dawley, 10% (v/v) rat plasma in saline, 10% (v/v) rat plasma), 95.4 ± 3.6 min. In addition, the half-life at 100 µM is 62.4 ± 3.6 min in series [5] (male, Sprague-Dawley, 20% (v/v) rat plasma in saline, 20% (v/v) rat plasma) and 62.4 ± 3 min in series [5] (male, Sprague-Dawley, 40% (v/v) rat plasma in saline, 40% (v/v) rat plasma). The “k × 10^3, first-order hydrolysis rate constant” value in the series with porcine liver esterase (0 U/mL, phosphate buffer (pH 8.0) without liver esterase, 25 °C) is reported as 8.0 ±1.3 h^−1; in the series on porcine liver esterase (setting [8]), 107.9 ± 29.0 h^−1; with porcine liver esterase (setting [9]) it was 159.6 ±1.3 h^−1; with porcine liver esterase (setting [10]), 226.1 ± 24.7 h^−1; in series [5] (setting [11]), 9.1 ± 3.2 h^−1; in series [5] (10% (v/v) rat plasma), 436.6 ± 17.2 h^−1. In addition, the “k × 10^3, first-order hydrolysis rate constant” value in series [5] (20% (v/v) rat plasma) is reported as 665.0 ± 35.2 h^−1; in series [5] (40% (v/v) rat plasma), 666.9 ± 30.7 h^−1. The “SPBS 7.4, the solubility in PBS 7.4 solution” value in series [2] was “<LOQ”. Moreover, the “Soil, the solubility in soybean oil” value in series [2] (soybean oil, 37 °C) is reported as “Miscible”. Further, in series [1], the solubility was roughly 1500 µM (≈ 856 µg/mL). In series [1] (from soybean oil solution 27.37 mM, PBS pH 7.4 with 0.25% SDS, 25 °C, 72 h), this compound had a total cumulative release of 69.55%. Besides, in series [1] (from soybean oil solution, PBS pH 7.4 with 0.25% SDS, 25 °C), the “duration of sustained release” value was “more than 72 h”. For the same compound, the “ROP-ST detected in dialysis medium” value in series [6] was “no ROP-ST was detected”.

Consider `O=C1CCc2ccc(OCCCCN3CCN(c4cccc(Cl)c4Cl)CC3)cc2N1` [aripiprazole], for which the pKa (commonly the negative logarithm of the acid dissociation constant) in series [7] is on record as 7.46.
